Reference: PMC3582901 (Angewandte Chemie (International ed. in English), 2011)

Target: DYNLL1 (dynein light chain type 1) (Homo sapiens, UniProt P63167)
Assay: isothermal titration calorimetry
Type: binding

Chain of DYNLL1 (dynein light chain type 1) (P63167 whole entry): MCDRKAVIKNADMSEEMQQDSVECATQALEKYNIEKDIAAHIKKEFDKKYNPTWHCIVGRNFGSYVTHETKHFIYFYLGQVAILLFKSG

Kd: 840 ± 310 nM
Structure (SMILES): C=C(C)[C@@H](CC[C@]1(C)O[C@@H]([C@](C)(O)[C@@H]2CC[C@H]3O[C@@H]([C@]4(C)CC[C@@H](Br)C(C)(C)O4)CC[C@]3(C)O2)C[C@H]1O)OC [1a, aplysqualenol A]
